Legend:
[1] = Pharmacokinetics in plasma of free and encapsulated antibiotics in rabbits; type: in vivo, male rabbits of the "White New Zealand" type
Text: In order to evaluate the influence of the encapsulation on the pharmacokinetics of two antibiotics, butirosin according to Example 6 and erythromycin according to Example 13, we carried out the determination in plasma as a function of time for these two antibiotics after administration in the free form and in the encapsulated form.
The injections are given subcutaneously and intravenously to male rabbits of the "White New Zealand" type weighing approximately 3 kg. The samples are taken at the lateral vein of the ear in amounts of 200 μl of blood/sample. The blood is immediately centrifuged at 8000 rpm for 15 min. The serum is withdrawn and stored at 4° C. until used.
(§1) Butirosin, like erythromycin, is determined by measuring the lysis zones (agar cylinders method) in an agar medium (bioMerieux) inoculated with 1000 cfu/ml of Bacillus subtilis and incubated at 37° C. for 18 hours. The bioMerieux agar medium consists of 6 g of bio-Gelytone, 3 g of yeast extract, 1.5 g of beef extract and 15 g of agar per 1 l of distilled water. The pH of the medium is adjusted to 9.
(§2) The serum samples are deposited in the wells made in the agar medium (30 μl/well). Reference solutions representing known amounts of antibiotic are also deposited in the dish.
The amounts injected are 1 ml containing 9 mg of butirosin in the free or encapsulated form.
4 ml of a physiological solution containing 5 mg of butirosin either in the free form or encapsulated in 100 mg of BVSM are injected. The solution is prepared from 8 g/l NaCl, 0.2 g/l KCl, 0.1 g/l anhydrous CaC12 (sic), 0.1 g/l MgCl2, 3.18 g/l Na2 HPO4 and 0.2 g/l KH2 PO4, adjusted to pH 7.4.
The injections are made slowly in the external vein of the ear after vasodilatation with warm water and disinfection with ethanol at […].
The amounts injected are 1 ml containing 15 mg of free or encapsulated erythromycin. For reasons of solubility, free erythromycin is dissolved in a water/ethanol (85:15) mixture.

[2] = system: Bacillus subtilis; assay: Inhibition of Bacillus subtilis in agar medium / Petri dish (agar cylinders method); type: cell-based
Protocol: as §1, §2

[3] = Bacillus subtilis, 18 h, read-out: Diameter (standard range)

Row | Molecule | diffusion in the plasma / plasma level ([1]; erythromycin) | diffusion in the plasma / plasma level ([1]; erythromycin, listed as Free erythromycin) | zone of inhibition at 10 µg/mL [2, 3] | zone of inhibition at 25 µg/mL [2, 3] | zone of inhibition at 100 µg/mL [2, 3] | zone of inhibition at 250 µg/mL [2, 3] | zone of inhibition at 1000 µg/mL [2, 3] | diffusion into the plasma and elimination ([1]; rabbit, in vivo, iv) | diffusion in the plasma / plasma level ([1]; rabbit, in vivo, sc) | time after which eliminated ([1]; rabbit, in vivo, sc) | Diameter (standard range) ([2]; 0.5 μg/ml) | Diameter (standard range) ([2]; 1 μg/ml) | Diameter (standard range) ([2]; 2 μg/ml) | Diameter (standard range) ([2]; 5 μg/ml) | Diameter (standard range) ([2]; 10 μg/ml) | Diameter (standard range) ([2]; 20 μg/ml) | Diameter (standard range) ([2]; 50 μg/ml)
1 | CC[C@H]1OC(=O)[C@H](C)[C@@H](O[C@H]2C[C@@](C)(OC)[C@@H](O)[C@H](C)O2)[C@H](C)[C@@H](O[C@@H]2O[C@H](C)C[C@H](N(C)C)[C@H]2O)[C@](C)(O)C[C@@H](C)C(=O)[C@H](C)[C@@H](O)[C@]1(C)O [Erythromycin, erythromycin] | diffuses relatively slowly in the plasma | higher initial level to be achieved in the plasma than the encapsulated form | 26 mm | 29 mm | 31 mm | 33 mm | 37 mm | – | – | – | – | – | – | – | – | – | –
2 | butirosin | – | – | – | – | – | – | – | diffuses very rapidly into the plasma and is also eliminated very rapidly | diffuses very rapidly in the plasma | 6 h | 14 mm | 17 mm | 19 mm | 22 mm | 24 mm | 26 mm | 28 mm
